How the values were obtained:
LRRK2 wt = target: T1, LRRK2 wt (Homo sapiens, UniProt Q5S007); assay: IC50 experiments, Invitrogen Adapta assay, LRRK2 wt; type: biochemical
T1 construct: purchased Invitrogen
Method: (§1) IC50 experiments were performed using Invitrogen™'s Adapta™ assay.

LRRK2 G2019S = target: T2, LRRK2 G2019S (Homo sapiens, UniProt Q5S007, G2019S); assay: IC50 experiments, Invitrogen Adapta assay, LRRK2 G2019S; type: biochemical
T2 construct: purchased Invitrogen
Method: as §1

LRRK2 = assay: Cellular degradation of LRRK2, Western blot in MEFs; type: cell-based, Mouse; conditions: for degradation of LRRK2 (total level): Western blot, time course, 0 nM-1000 nM; for level of LRRK2 (degradation): after 48 hours (FIG. 18)
Method: (§2) Cell lines used: Mouse embryonic fibroblast (MEF) WT, LRRK2 homozygous knock-ins in MEFs [R1441C; VPS35N(D620N); G2019S].
(§3) Tested concentration of LRRK2 degraders: 0 nM, 10 nM, 30 nM, 100 nM, 300 nM, 1000 nM. Additional concentrations tested for inventive compound 3: 2 uM, 5 uM and 10 uM.
(§4) Complete growth medium: DMEM supplemented with: 10% Fetal Bovine Serum; 1% pen/strep; 1% L-Glutamine; 1% MEM Non-essential Amino Acid Solution; 1% sodium pyruvate.
(§5) Commercial and in-house purified antibodies: • (a) Mouse anti-LRRK2/Dardarin antibody from Antibodies, Inc. (Cat #75-253). • (b) Rabbit monoclonal antibodies for total LRRK2 (UDD3) and pS935-LRRK2 (UDD2) were purified at the University of Dundee (as described in Dzamko et al., PLoS One 7(6): e39132 (2012). • (c) Loading controls: anti-α-tubulin (Cell Signaling Technology #5174); anti-GAPDH (Santa Cruz Biotechnology Cat. #sc-32233) • (d) (p)Rab10 antibodies: rabbit anti-RAB10 (phospho T73) antibody [MJF-R21] (ab230261); mouse MJFF-total Rab10 monoclonal antibody were generated by nanoTools (www.nanotools.de); rabbit Rab10 total was from Cell Signaling Technology (Rab10 (D36C4) XP® Rabbit mAb #8127)
(§6) Treatment: WT MEF, R1441C, VPS35N and G2019S mutants' cells were plated at equal density into 6-well plates in a final volume of 3 mL of complete growth medium/well. Degraders were reconstituted in DMSO and used at 1:1000 in cells i.e. 3 μl/3 ml. Treatment began when cells were >60% confluent, starting from a 48-hour time point, followed by a 24-hour time point, a 6-hour time point and finally a 1-hour time point.
(§7) Cell lysis: Media were aspirated, plates were placed on ice and cells were washed with Dulbecco's phosphate-buffered saline (DPBS). Fifty microliters of an ice-cold lysis buffer containing 50 mM Tris-HCl, pH 7.5, 1% (v/v) Triton X-100, 1 mM ethylene glycol-bis(μ-aminoethyl ether)-N,N,N′,N′-tetraacetic acid (EGTA), 1 mM sodium orthovanadate, 50 mM NaF, 0.1% (v/v) 2-mercaptoethanol, 10 mM 2-glycerophosphate, 5 mM sodium pyrophosphate, 0.1 μg/ml microcystin-LR (Enzo Life Sciences), 270 mM sucrose and complete EDTA-free protease inhibitor cocktail (Sigma-Aldrich Cat #11836170001) was added per well. Lysates were centrifuged at 20,817 g (14,000 rpm) for 15 min at 4° C. and supernatants were used to determine protein concentration using Bradford assay (Pierce™ Coomassie (Bradford) Protein Assay Kit, Thermo Scientific™ Cat #23200) and for Western blot analysis.
(§8) Western blot analysis: Cell lysates were mixed with 4× SDS-PAGE sample buffer [50 mM Tris-HCl, pH 6.8, 2% (w/v) SDS, 10% (v/v) glycerol, 0.02% (w/v) Bromophenol Blue and 1% (v/v) 2-mercaptoethanol] to a final total protein concentration of 1 μg/μl and heated at 95° C. for 5 minutes. Twenty micrograms of samples were loaded onto NuPAGE™ 4-12% Bis-Tris gradient gels (Life Technologies) along with 3 μl of BIO-RAD protein marker (Precision Plus Protein™ All Blue Prestained Protein Standards #1610373 kDa), gels were run in duplicates at 110V for 2 hours and 30 minutes with the NuPAGE™ MOPS SDS running buffer (Life Technologies, Cat #NP0001-02). After electrophoresis, the separated proteins were transferred onto the nitrocellulose membrane (GE Healthcare, Amersham Protran 0.45 μm NC) at 90 V for 90 minutes. Transferred membranes were briefly stained with Ponceau S stain and divided into 3 strips, as described earlier in Fan et al., Biochem. J. 475:23-44 (2018). Briefly, upper strip was cut from the top of the membrane to 75 kDa, middle strip cut was between 75 kDa—30 kDa and bottom strip cut was from 30 kDa—to the bottom of the membrane. Membrane strips were blocked at room temperature with 5% (w/v) dried skimmed milk dissolved in TBS-T [20 mM Tris-HCl, pH 7.5, 150 mM NaCl and 0.1% (v/v) Tween® 20] for 1 hour, washed four times with ten minutes intervals in TBS-T and incubated with primary antibodies diluted in 5% BSA (bovine serum albumin) in TBS-T overnight at 4° C. […]

LRRK2 pS935 = assay: Inhibition of phosphorylation of S935, Western blot in MEFs; type: cell-based, Mouse; conditions: for inhibition of phosphorylation of S935: Western blot, time course, 0 nM-1000 nM
Method: as §2, §3, §4, §5, §6, §7, §8

Rab10 (phospho T73) = assay: Inhibition of phosphorylation of Rab10, Western blot in MEFs; type: cell-based, Mouse; conditions: for inhibition of phosphorylation of Rab10: Western blot, time course, 0 nM-1000 nM
Method: as §2, §3, §4, §5, §6, §7, §8

[1] = target: T3, LRRK2 R1441C homozygous knock-in MEFs (Mus musculus, UniProt Q5S006, R1441C); assay: Cellular degradation of LRRK2 in R1441C homozygous cells, Western blot; type: cell-based; conditions: R1441C homozygous cells (FIG. 3B), time course, 0 nM-1000 nM
T3 construct: endogenous in cells; host or cells: LRRK2 R1441C homozygous knock-in MEFs
Method: as §2, §3, §4, §5
Treatment: WT MEF, R1441C, VPS35N and G2019S mutants' cells were plated at equal density into 6-well plates in a final volume of 3 mL of complete growth medium/well. Degraders were reconstituted in DMSO and used at 1:1000 in cells i.e. 3 μl/3 ml. […]

T1 sequence (Q5S007 whole entry): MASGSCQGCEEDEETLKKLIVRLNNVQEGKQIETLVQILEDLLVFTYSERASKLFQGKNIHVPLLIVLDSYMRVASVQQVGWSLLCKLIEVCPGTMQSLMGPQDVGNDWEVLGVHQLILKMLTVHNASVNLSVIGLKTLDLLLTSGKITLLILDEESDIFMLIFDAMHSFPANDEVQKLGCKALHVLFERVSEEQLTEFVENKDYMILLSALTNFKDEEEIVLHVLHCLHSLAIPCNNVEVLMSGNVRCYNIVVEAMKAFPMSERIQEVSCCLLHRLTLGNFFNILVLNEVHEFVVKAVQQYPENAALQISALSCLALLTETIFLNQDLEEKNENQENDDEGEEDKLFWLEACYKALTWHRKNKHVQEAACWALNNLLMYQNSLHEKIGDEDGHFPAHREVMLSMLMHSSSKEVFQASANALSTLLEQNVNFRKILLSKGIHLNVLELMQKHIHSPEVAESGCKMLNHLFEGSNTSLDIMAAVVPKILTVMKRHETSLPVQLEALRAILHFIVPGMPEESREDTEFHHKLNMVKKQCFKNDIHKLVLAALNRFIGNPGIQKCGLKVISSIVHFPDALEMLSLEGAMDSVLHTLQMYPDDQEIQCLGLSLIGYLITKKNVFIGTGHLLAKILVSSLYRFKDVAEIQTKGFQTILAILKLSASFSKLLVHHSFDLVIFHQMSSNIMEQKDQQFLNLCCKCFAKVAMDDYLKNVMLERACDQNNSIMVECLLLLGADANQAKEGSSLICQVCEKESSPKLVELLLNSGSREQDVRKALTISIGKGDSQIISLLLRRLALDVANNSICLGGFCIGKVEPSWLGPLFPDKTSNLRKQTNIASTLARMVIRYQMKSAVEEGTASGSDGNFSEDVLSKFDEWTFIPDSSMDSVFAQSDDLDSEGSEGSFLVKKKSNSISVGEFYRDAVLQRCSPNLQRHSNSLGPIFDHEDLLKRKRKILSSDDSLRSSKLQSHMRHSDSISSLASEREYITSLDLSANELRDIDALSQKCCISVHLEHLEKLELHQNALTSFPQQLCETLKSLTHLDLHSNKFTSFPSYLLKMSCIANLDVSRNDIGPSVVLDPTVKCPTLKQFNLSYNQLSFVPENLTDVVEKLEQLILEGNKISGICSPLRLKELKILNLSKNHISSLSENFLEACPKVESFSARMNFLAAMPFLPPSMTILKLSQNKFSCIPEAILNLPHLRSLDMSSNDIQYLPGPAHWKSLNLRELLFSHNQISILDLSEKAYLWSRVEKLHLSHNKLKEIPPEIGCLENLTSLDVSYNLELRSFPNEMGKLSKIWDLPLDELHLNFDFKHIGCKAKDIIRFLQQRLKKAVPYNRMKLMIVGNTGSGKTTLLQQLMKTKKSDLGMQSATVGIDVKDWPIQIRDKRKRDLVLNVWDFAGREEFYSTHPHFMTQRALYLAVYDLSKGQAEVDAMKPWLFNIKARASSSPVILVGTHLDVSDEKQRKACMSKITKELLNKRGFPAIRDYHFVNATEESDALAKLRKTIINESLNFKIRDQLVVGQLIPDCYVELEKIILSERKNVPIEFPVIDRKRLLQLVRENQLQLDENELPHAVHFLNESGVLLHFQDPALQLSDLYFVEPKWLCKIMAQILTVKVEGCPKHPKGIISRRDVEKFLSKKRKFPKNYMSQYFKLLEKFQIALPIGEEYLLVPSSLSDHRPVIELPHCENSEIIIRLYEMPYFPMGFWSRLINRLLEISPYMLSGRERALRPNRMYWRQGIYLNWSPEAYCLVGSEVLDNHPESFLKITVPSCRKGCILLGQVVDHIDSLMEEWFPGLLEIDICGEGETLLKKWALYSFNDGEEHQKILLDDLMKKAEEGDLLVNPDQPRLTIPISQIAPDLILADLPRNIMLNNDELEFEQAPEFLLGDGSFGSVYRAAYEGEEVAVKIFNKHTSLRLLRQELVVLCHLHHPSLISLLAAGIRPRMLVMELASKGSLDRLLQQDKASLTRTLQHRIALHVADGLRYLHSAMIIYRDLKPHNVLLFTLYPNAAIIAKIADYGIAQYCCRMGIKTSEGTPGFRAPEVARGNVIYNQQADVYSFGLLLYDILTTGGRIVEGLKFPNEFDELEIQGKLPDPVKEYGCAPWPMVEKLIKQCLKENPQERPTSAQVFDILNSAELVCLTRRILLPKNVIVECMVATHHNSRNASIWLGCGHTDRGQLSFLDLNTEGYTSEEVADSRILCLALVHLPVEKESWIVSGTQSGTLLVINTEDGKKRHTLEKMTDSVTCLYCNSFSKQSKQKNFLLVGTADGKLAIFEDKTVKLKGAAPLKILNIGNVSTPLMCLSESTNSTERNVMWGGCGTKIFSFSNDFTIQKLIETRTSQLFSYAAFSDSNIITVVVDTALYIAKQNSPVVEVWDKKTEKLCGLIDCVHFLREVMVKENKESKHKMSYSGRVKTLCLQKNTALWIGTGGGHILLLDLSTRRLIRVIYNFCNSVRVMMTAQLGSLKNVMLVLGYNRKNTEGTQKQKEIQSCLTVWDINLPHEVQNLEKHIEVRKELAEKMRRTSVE
T2 sequence (Q5S007 whole entry G2019S): as the sequence (Q5S007 whole entry) above, with G2019S counted along it
T3 sequence (Q5S006 whole entry R1441C): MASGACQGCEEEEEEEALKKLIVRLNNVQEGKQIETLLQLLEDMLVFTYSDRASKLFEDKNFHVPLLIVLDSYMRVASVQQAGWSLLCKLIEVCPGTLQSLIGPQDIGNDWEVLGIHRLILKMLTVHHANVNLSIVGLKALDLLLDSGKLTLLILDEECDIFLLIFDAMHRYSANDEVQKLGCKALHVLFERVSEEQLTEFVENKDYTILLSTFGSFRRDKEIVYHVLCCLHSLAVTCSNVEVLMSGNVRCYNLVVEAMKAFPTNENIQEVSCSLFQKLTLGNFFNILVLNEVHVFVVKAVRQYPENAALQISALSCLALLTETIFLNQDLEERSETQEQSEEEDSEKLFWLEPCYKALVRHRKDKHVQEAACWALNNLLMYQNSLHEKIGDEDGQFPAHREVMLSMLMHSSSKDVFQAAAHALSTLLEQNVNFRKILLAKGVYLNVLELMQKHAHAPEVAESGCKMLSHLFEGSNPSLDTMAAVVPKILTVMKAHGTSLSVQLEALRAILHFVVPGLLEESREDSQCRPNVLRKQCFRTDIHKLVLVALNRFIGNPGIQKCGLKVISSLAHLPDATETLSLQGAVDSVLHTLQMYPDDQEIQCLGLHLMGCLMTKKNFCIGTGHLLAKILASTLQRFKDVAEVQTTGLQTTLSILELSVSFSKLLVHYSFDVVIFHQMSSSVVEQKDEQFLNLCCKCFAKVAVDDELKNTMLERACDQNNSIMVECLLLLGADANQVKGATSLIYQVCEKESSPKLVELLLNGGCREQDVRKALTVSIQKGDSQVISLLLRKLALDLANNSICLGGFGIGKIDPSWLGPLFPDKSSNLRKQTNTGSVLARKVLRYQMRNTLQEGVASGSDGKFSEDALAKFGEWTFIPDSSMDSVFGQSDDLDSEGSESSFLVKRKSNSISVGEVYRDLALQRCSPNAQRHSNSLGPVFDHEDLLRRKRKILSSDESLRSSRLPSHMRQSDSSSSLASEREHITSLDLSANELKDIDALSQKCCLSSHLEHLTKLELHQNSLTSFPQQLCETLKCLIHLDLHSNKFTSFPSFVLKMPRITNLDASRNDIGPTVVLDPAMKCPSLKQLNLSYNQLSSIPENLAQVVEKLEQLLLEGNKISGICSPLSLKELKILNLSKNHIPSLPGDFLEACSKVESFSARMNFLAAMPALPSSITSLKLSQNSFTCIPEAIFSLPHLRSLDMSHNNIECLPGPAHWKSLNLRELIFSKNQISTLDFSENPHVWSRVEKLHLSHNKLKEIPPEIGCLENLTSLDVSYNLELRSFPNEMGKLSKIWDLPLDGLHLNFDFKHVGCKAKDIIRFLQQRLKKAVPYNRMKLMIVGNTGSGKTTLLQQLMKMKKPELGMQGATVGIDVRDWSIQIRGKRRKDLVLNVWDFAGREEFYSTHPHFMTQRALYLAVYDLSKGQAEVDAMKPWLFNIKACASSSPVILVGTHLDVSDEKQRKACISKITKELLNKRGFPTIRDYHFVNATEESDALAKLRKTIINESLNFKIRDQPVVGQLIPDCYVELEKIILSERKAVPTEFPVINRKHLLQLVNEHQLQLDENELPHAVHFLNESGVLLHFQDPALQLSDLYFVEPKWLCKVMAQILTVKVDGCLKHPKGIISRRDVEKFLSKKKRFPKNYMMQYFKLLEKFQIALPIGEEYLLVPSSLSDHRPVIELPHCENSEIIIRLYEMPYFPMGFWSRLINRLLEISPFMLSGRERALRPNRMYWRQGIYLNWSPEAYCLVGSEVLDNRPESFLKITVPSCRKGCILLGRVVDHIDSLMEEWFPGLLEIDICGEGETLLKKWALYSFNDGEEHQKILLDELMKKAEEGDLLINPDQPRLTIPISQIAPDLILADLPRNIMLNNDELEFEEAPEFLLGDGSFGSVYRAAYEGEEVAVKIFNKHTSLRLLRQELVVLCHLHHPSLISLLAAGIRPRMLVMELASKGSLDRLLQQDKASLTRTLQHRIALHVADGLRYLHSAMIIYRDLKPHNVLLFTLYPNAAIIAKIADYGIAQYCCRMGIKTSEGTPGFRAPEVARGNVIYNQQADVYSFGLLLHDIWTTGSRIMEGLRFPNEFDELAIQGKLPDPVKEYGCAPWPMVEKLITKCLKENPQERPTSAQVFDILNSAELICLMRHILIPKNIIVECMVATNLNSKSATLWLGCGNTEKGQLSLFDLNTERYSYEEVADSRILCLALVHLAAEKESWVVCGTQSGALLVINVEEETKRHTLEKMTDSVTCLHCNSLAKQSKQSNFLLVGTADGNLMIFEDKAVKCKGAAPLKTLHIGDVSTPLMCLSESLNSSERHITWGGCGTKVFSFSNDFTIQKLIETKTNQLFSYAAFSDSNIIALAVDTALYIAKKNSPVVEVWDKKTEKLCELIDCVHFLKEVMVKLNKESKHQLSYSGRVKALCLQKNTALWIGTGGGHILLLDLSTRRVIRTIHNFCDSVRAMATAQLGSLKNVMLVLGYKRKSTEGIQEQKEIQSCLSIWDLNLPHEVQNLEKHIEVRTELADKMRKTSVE

| SMILES | IC50 (LRRK2 wt) | IC50 (LRRK2 G2019S) | degradation of LRRK2 (total level) (LRRK2) | inhibition of phosphorylation of S935 (LRRK2 pS935) | inhibition of phosphorylation of Rab10 (Rab10 (phospho T73)) | degradation of LRRK2 (C-terminus) [1] | level of LRRK2 (degradation) (LRRK2) | inhibition of pS935 (LRRK2 pS935; after 48 hours (FIG. 18)) | inhibition of pRAB10 (Rab10 (phospho T73); after 48 hours (FIG. 18)) |
| --- | --- | --- | --- | --- | --- | --- | --- | --- | --- |
| CNc1nc(Nc2ccc(C(=O)N3CCN(C(=O)CCOCCOCCOCCOCCNc4cccc5c4C(=O)N(C4CCC(=O)NC4=O)C5=O)CC3)cc2OC)ncc1C(F)(F)F (stereo not shown) [Compound 1] | 4 nM | 2 nM | did not degrade | inhibited | inhibited | – | – | – | – |
| CNc1nc(Nc2ccc(C(=O)N3CCN(C(=O)CCOCCOCCNc4cccc5c4C(=O)N(C4CCC(=O)NC4=O)C5=O)CC3)cc2OC)ncc1C(F)(F)F (stereo not shown) [Compound 2] | 2 nM | 1 nM | did not degrade | inhibited | inhibited | – | – | – | – |
| CNc1nc(Nc2ccc(C(=O)N3CCN(C(=O)CCCCCCCCOc4cccc5c4C(=O)N(C4CCC(=O)NC4=O)C5=O)CC3)cc2OC)ncc1C(F)(F)F (stereo not shown) [Compound 3, 2-(2,6-dioxopiperidin-3-yl)-4-((9-(4-(3-methoxy-4-((4-(methylamino)-5-(trifluoromethyl)pyrimidin-2-yl)amino)benzoyl)piperazin-1-yl)-9-oxononyl)oxy)isoindoline-1,3-dione] | 2 nM | 1 nM | did not degrade | inhibited | inhibited | observed | – | – | – |
| CNc1nc(Nc2ccc(C(=O)N3CCN(CCOCCOCCOCCNc4cccc5c4C(=O)N(C4CCC(=O)NC4=O)C5=O)CC3)cc2OC)ncc1C(F)(F)F (stereo not shown) [Compound 5] | – | – | did not degrade | inhibited | inhibited | – | – | – | – |
| CC1(Oc2ccc3[nH]nc(-c4cc(N5CCN(C(=O)CCOCCOCCNc6cccc7c6C(=O)N(C6CCC(=O)NC6=O)C7=O)CC5)ncn4)c3c2)CC1 (stereo not shown) [Compound 8, 2-(2,6-dioxopiperidin-3-yl)-4-((2-(2-(3-(4-(6-(5-(1-methylcyclopropoxy)-1H-indazol-3-yl)pyrimidin-4-yl)piperazin-1-yl)-3-oxopropoxy)ethoxy)ethyl)amino)isoindoline-1,3-dione] | 1.24 nM | 1.13 nM | decreased | inhibited | – | – | degraded | – | – |
| CC1(Oc2ccc3[nH]nc(-c4cc(N5CCN(C(=O)CCOCCOCCOCCOCCNc6cccc7c6C(=O)N(C6CCC(=O)NC6=O)C7=O)CC5)ncn4)c3c2)CC1 (stereo not shown) [Compound 9] | 1.46 nM | 0.98 nM | decreased | inhibited | – | – | – | – | – |
| CC1(Oc2ccc3[nH]nc(-c4cc(N5CCN(C(=O)CCOCCNc6cccc7c6C(=O)N(C6CCC(=O)NC6=O)C7=O)CC5)ncn4)c3c2)CC1 (stereo not shown) [Compound 10, 2-(2,6-dioxopiperidin-3-yl)-4-((2-(3-(4-(6-(5-(1-methylcyclopropoxy)-1H-indazol-3-yl)pyrimidin-4-yl)piperazin-1-yl)-3-oxopropoxy)ethyl)amino)isoindoline-1,3-dione] | 1.59 nM | 1.08 nM | Less degradation | inhibited | – | – | – | – | – |
| CC1(Oc2ccc3[nH]nc(-c4cc(N5CCN(C(=O)CCOCCNc6cccc7c6C(=O)N(C6CCC(=O)NC6=O)C7)CC5)ncn4)c3c2)CC1 (stereo not shown) [Compound 11, 3-(7-((2-(3-(4-(6-(5-(1-methylcyclopropoxy)-1H-indazol-3-yl)pyrimidin-4-yl)piperazin-1-yl)-3-oxopropoxy)ethyl)amino)-1-oxoisoindolin-2-yl)piperidine-2,6-dione] | 2.5 nM | 1.47 nM | Some degradation | inhibits | – | – | – | – | – |
| CC1(Oc2ccc3[nH]nc(-c4cc(N5CCN(C(=O)CCOCCOCCNc6cccc7c6C(=O)N(C6CCC(=O)NC6=O)C7)CC5)ncn4)c3c2)CC1 (stereo not shown) [Compound 12, 3-(7-((2-(2-(3-(4-(6-(5-(1-methylcyclopropoxy)-1H-indazol-3-yl)pyrimidin-4-yl)piperazin-1-yl)-3-oxopropoxy)ethoxy)ethyl)amino)-1-oxoisoindolin-2-yl)piperidine-2,6-dione] | 2.58 nM | 2.24 nM | Minor degradation | inhibited | – | – | – | – | – |
| CC1(Oc2ccc3[nH]nc(-c4cc(N5CCN(C(=O)CCOCCOCCOCCOCCNc6cccc7c6C(=O)N(C6CCC(=O)NC6=O)C7)CC5)ncn4)c3c2)CC1 (stereo not shown) [Compound 13] | 3.14 nM | 3.16 nM | Some degradation | inhibited | – | – | – | – | – |
| Cc1ncsc1-c1ccc([C@@H](C)NC(=O)[C@H]2C[C@H](O)CN2C(=O)[C@H](NC(=O)CCOCCOCCOCCC(=O)N2CCN(c3cc(-c4n[nH]c5ccc(OC6(C)CC6)cc45)ncn3)CC2)C(C)(C)C)cc1 [Compound 14, (2R,4S)-1-((R)-2-(tert-butyl)-16-(4-(6-(5-(1-methylcyclopropoxy)-1H-indazol-3-yl)pyrimidin-4-yl)piperazin-1-yl)-4,16-dioxo-7,10,13-trioxa-3-azahexadecanoyl)-4-hydroxy-N—((R)-1-(4-(4-methylthiazol-5-yl)phenyl)ethyl)pyrrolidine-2-carboxamide] | – | – | No degradation | inhibited | inhibited | – | – | – | – |
| Cc1ncsc1-c1ccc([C@H](C)NC(=O)[C@@H]2C[C@@H](O)CN2C(=O)[C@@H](NC(=O)CCOCCOCCOCCOCCC(=O)N2CCN(c3cc(-c4n[nH]c5ccc(OC6(C)CC6)cc45)ncn3)CC2)C(C)(C)C)cc1 [Compound 15] | – | – | No degradation | inhibited | inhibited | – | – | – | – |
| CC1(Oc2ccc3[nH]nc(-c4cc(N5CCN(C(=O)CCOCCOCCNc6cccc7c6C(=O)N(C6CCCNC6=O)C7=O)CC5)ncn4)c3c2)CC1 (stereo not shown) [Compound 16] | – | – | – | – | – | – | did not reduce | potently inhibited | potently inhibited |
| CN1CCN(c2cc(-c3n[nH]c4ccc(OC5(C)CC5)cc34)ncn2)CC1 [MLi-2 analog, 5-(1-methylcyclopropyl)oxy-3-[6-(4-methylpiperazin-1-yl)pyrimidin-4-yl]-1H-indazole, reference compound] | – | – | did not decrease | inhibits | – | – | – | – | – |

From patent US20210361774A1, “DEGRADERS OF WILD-TYPE AND MUTANT FORMS OF LRRK2” (DANA-FARBER CANCER INSTITUTE, INC., priority 2018, published 2021)
